Literature values in patent US20040132815A1, “Preventive/remedial agent for inflammatory disease in oral-cavity mucosa and the like” (priority 2001, published 2004).

Conditions: compared with the disodium salt

hygroscopicity: less hygroscopic
stability: more stable
SMILES: CC(C)c1cc2c(cc1S(=O)(=O)[O-])[C@@]1(C)CCC[C@@](C)(C(=O)O)[C@@H]1CC2.[Na+] [Sulfodehydroabietic acid monosodium salt]
